We go through one compound from patent US20260242390A1, “TOTAL SYNTHESES OF PORTIMINE A AND ANALOGUES THEREOF AS SMALL MOLECULE MODULATORS OF NMD3” (priority 2023, published 2026).

One series has as its system XPO1. Kind of series: XPO1 protein level in Jurkat cells. It counts as cell-based, human. The protocol:
(§1) FIG. 7. Portimine A targets NMD3 and prevents polysome formation. […] (A) Immunoblot showing reduced NMD3 levels in shNMD3 Jurkat and HeLa cells. […] Jurkat cells were treated with 12.5 nM of PA for 12 or 24 hours. Jurkat and HeLa cells were treated with 5 nM or 150 nM of PA for 24 hours. Data represents mean±SD of biologically replicated experiments (n=3). […] Cell lysates were fractionated by sucrose gradient (5-50%) and each fraction were analyzed by western blot. eIF6 levels increase in 60S subunit fraction and decrease in ribosome-free fractions after PA treatment. RPS6, a 40S and polysome subunits marker, is decreased in polysome fractions after PA treatment. Results are representative of three independent experiments. […] Relative protein levels in each fraction were normalized to the peak fraction of the indicated protein from the DMSO cells and plotted. Data represents mean±SD of biologically replicated experiments (n=3). Statistical analysis was performed using multiple unpaired Student t-test. * p≤0.05; ** p≤0.01; *** p≤0.005; **** p≤0.0001. Treatment condition: Jurkat (5 M per condition); Incubate cells (1 M/mL) with inhibitors for 6 hr, 12 hr and 24 hr, respectively.
(§2) • 1) Portimine A and its functional analogs show stereo-selective acute toxicity in cancer cells (FIG. 1). […] (B) Structure of portimine related analogs: phenyl-portimine A (Ph-PA, 36) and epi-portimine A (ePA, 38). […]

The test system of the next series is LNCaP. Kind of series: Broad cell line profiling, LNCaP. It counts as cell-based. The conditions noted are these: Homo sapiens, Prostate Carcinoma, read-out: PA IC50. The text has this: (§3) • A panel of human and mouse cancer cell types used to assess the breadth of PA activity, including multiple therapy resistant metastatic mesenchymal tumor cell lines and primary glioblastoma patient-derived metastatic stem/tumor initiating cell populations.

The subject of another series is B16-F10. Kind of series: Broad cell line profiling, B16-F10. It counts as cell-based. Particulars: B16-F10, Mouse Melanoma; read-out: PA IC50.
Excerpt: as §3

The subject of series [1] is shNMD3 Jurkat and HeLa cells. Kind of series: Toxicity in NMD3 knock-down (shNMD3) cells. Particulars: Jurkat 12.5 nM 12 or 24 hours; Jurkat and HeLa 5 nM or 150 nM 24 hours. It counts as cell-based, human. The protocol:
as §1, §2

The subject of a further series is p53. Kind of series: p53 protein level in Jurkat cells. It counts as cell-based, human. The method, then: as §1, §2
Another series has as its system Jurkat cells. Put plainly: Polysome profiling. It is filed as cell-based, human. The conditions noted are these: 6 hours at 50 nM. The protocol: as §1, §2
The conditions of series [2]: in vivo; cited from earlier work.
For a further series, the system named is HeLa. Kind of series: Broad cell line profiling, HeLa. The conditions noted are these: Homo sapiens, Cervical Adenocarcinoma, read-out: PA IC50. It is filed as cell-based.
Excerpt: as §3

In a further series the test system is RD. Kind of series: Broad cell line profiling, RD. It counts as cell-based. Particulars: Human Rhabdomyosarcoma, read-out: PA IC50.
Excerpt: as §3

Broadly, the IC50 is the concentration needed to halve the response being measured. A word on the LD50: it is the dose expected to kill half of the subjects tested.

In the case of `C=CC1=C[C@@H]2[C@@H]3O[C@]4(CC[C@H](O4)C(C)C[C@@H](O)C3=O)CC(O)C3=NCC[C@@]32CC1` (stereo partly drawn) [PA, portimine A], the XPO1 levels entry in the series with XPO1 is listed as “unaffected”. In addition, the concentration for half-maximal inhibition (IC50) in the series with LNCaP amounted to 1.7 nM; in the series with B16-F10 it was 0.75 nM; in the series with HeLa, 1.6 nM; in the series with RD, 0.56 nM. Further, the “toxic effects in shNMD3 compared to shCtrl cells” value in series [1] was “less toxic effects”. Further, the p53 level entry with p53 is given as “downregulated”. Besides, in the series with Jurkat cells, the “polysome profiling, protein translation” value is given as “protein translation inhibition”. The LD50 in [2] was 1.57 mg/kg.
